Data: patent US20060121449A1, “Method for selection of compounds which inhibit clonal cell growth and use thereof” (priority 2002, published 2006)
Read-outs that look alike come from different tables or passages of the source.

Experiments:
[1] = test system: polyoma virus transformed BHK21/c13 cells, line S100T1; test: Collocation inhibition test: clonal growth in sparsely and densely seeded areas of a cell density gradient of S100T1 cells in soft agar (Exp 13, 17, 19-26); settings: for Clonal growth read on the 3rd day after seeding / Clonal growth read on the 6th day after seeding: Exp 17;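 on all read-outs here: soft agar cultures in 24-well plates with a cell density gradient in the top layer, compounds applied from DMSO stocks, clonal growth scored in sparse versus dense areas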
Procedure: The cells should be grown in a top agar layer to avoid growth on the bottom surface. […] Both densely seeded and sparsely seeded areas were photographed.
Cells: The polyoma virus transformed offspring of BHK21/c13, S100T1, was grown on 75 cm^2 flasks on Eagles medium with 5% foetal calf serum. […] Foetal calf serum (0.7 ml) was added to each harvest. After low speed centrifugation the supernatant was discarded and the cells were dispersed in 1 ml FBS.
The concentration of ultra low gelling temperature agarose (Sigma) of the top agar layer with cells was also 0.8%. […] The addition of cells was performed at the same side of the wells in order to create similar cell density gradients. Finally the top layer agar was consolidated in the refrigerator.
After that it was incubated at 37 degrees in 5% CO2 atmosphere.
Agar cultures were prepared in Falcon 24 well tissue culture plate. Each well contained two agar layers of 0.3 ml.
Agar cultures were prepared in wells of Falcon 24 well tissue culture plate. Each contained two agar layers of 0.3 ml. […] The medium contained Eagles MEM and 10% foetal bovine serum (FBS).
The compounds were first solved in DMSO in 20 mM concentration and then diluted in medium. The top layer needed 60-90 minutes in the refrigerator for solidification before incubation in 37° C. with 5% CO2 atmosphere.
In this experiment the inhibitor was added to the bottom layer in order to get an easier way for making the cell density gradient. One side of the Falcon 24 well plate was elevated 12 degrees in the refrigerator for 60-90 minutes to solidify the bottom layer in an oblique position When then solidifying the cell containing top soft agar layer in horizontal position, the cell gradient constantly became good across the well. […] Another 90 minutes were spent in the refrigerator to consolidate the soft agar layer with cells in a horizontal position. Both layers contained 0.8% agarose, Eagles MEM and 10% FBS.
Tilting the plate 12 degrees when solidifying the bottom layer with the drug and casting the top layer with cells horizontally made a stable cell gradient.
The indicated compounds were added to soft agar cultures of the polyoma virus transformed cell line S100T1 of BHK21/c13 cells (Table 1). Agar cultures were prepared in wells of a Falcon 24 well tissue culture plate. The wells contained two agar layers of 0.3 ml. […] The bottom medium was identical, but without cells.
The compounds were first solved in DMSO in 20 mM concentration and then diluted in bottom medium. The agar layers needed 60-90 minutes in the refrigerator for consolidation before incubation at 37° C. in 5% CO2 atmosphere.

[2] = test system: polyoma virus transformed BHK21/c13 cells, clone S100T1; test: Clonal test: clonal growth of S100T1 cells in soft agar (Exp 2, 4, 6, 15, 16); type: cell-based, hamster; settings: for Significance: Exp 15, 5th day, ” = as line above; for Clonal growth: Exp 15, plate read the 5th day
Procedure: The clonal test comprises: • 1. seeding cells in soft agar optionally containing growth factor(s); • 2. handling or incubation of special gels (e.g. ultra low gelling temperature agarose), including the production of cell density gradients. • 3. incubating in suitable temperature and atmosphere and; • 4. regular monitoring of the cells and development of clones.
The clonal test can be directed in fluid medium or in soft agar medium. Usually only transformed cells will form clones in soft agar.
After seeding and mixing, the tubes were placed in the refrigerator for about 1 hour to consolidate the ultra low melting point agarose.
120000 S100T1 cells of a polyoma virus transformed BHK21/c13 cell line, were seeded in 1 ml soft agar medium in Falcon 50 ml centrifuge tubes. […] On the top of the agar layer 0.5 ml fluid medium was added.
Agar cultures were prepared in wells of 24 well Falcon tissue culture plate. […] Insulin (Actrapid, Novo) was added in a concentration of 0.1 i.u./ml to BHK21/c13 cell cultures only.
The cells were all single cells. Each well received 32000 cells (Table 4). Plate: 24 wells Falcon tissue culture plate received a bottom layer composed as in Table 3:
The cells were all single cells.
The wells contained two layers, each of 0.3 ml agar.
The agarose was added to double distilled water and solved by heating in micro oven.

[3] = High: #1 Colchicine 1, #2 Podophyllotoxin 3, #3 Etoposide 200, #4 4-OH—OPB 6.7 μM in wells, #5 DMSO 29.2 μl
[4] = Low: #1 Colchicine 0.1, #2 Podophyllotoxin 0.3, #3 Etoposide 20, #4 4-OH—OPB 0.67 μM in wells, #5 DMSO 1.16 μl
[5] = Medium: #1 Colchicine 0.3, #2 Podophyllotoxin 0.9, #3 Etoposide 60, #4 4-OH—OPB 2 μM in wells, #5 DMSO 6.8 μl
[6] = Experiment 23, A (area with high cell density), High concentration, 48 hours
[7] = Experiment 23, A (area with high cell density), Low concentration, 48 hours
[8] = Experiment 23, A (area with high cell density), Medium concentration, 48 hours
[9] = Experiment 23, B (area with low cell density), High concentration, 48 hours
[10] = Experiment 23, B (area with low cell density), Low concentration, 48 hours
[11] = Experiment 23, B (area with low cell density), Medium concentration, 48 hours
[12] = Summary Table 3 of analogue tests (experiments 22-25), H (high cell density), High concentration
[13] = Summary Table 3 of analogue tests (experiments 22-25), H (high cell density), Low concentration
[14] = Summary Table 3 of analogue tests (experiments 22-25), H (high cell density), Medium concentration
[15] = Summary Table 3 of analogue tests (experiments 22-25), L (low cell density), High concentration
[16] = Summary Table 3 of analogue tests (experiments 22-25), L (low cell density), Low concentration
[17] = Summary Table 3 of analogue tests (experiments 22-25), L (low cell density), Medium concentration
[18] = High conc., μM in wells: No 1 (4-OH—OPB) 20, 2 (Colchicine) 0.1, 3 (Diphenylhydantoin) 100, 4 (Podophyllotoxin) 0.3, 5 (Piroxicam) 50, 6 (Diclofenak) 100
[19] = Low conc., μM in wells: No 1 (4-OH—OPB) 2, 2 (Colchicine) 0.01, 3 (Diphenylhydantoin) 10, 4 (Podophyllotoxin) 0.03, 5 (Piroxicam) 5, 6 (Diclofenak) 10, 7 (Ibuprofen) 100, 8 (Naproxen) 50, 9 (Acetylsalicylic acid) 100
[20] = 4-OH-OPB analogues, S100T1 in soft agar, high concentration
[21] = 4-OH-OPB analogues, S100T1 in soft agar, low concentration
[22] = 4-OH-OPB analogues, S100T1 in soft agar, medium concentration

Compound	Clonal growth read on the 3rd day after seeding [1, 3]	Clonal growth read on the 6th day after seeding [1, 4]	Clonal growth read on the 3rd day after seeding [1, 5]	Clonal growth read on the 6th day after seeding [1, 5]	Clonal growth [1, 6]	Clonal growth [1, 7]	Clonal growth [1, 8]	Clonal growth [1, 9]	Clonal growth [1, 10]	Clonal growth [1, 11]	Clonal growth [1, 12]	Clonal growth [1, 13]	Clonal growth [1, 14]	Clonal growth [1, 15]	Clonal growth [1, 16]	Clonal growth [1, 17]	Significance [2, 18]	Significance [2, 19]	Clonal growth [2, 19]	Clonal growth, H: high density area of cell gradient, High [1, 20]	further results
Oc1ccc(N=Nc2ccccc2)cc1 [#1, p-hydroxy-azobenzene]	−	+	++	+	+(+)	+++	+++	+−	++	++	+(+)	+++	+++	+−	++	++	yes	yes	−		Clonal growth, H: high density area of cell gradient, Low [1]: +++; Clonal growth, H: high density area of cell gradient, Medium [1]: +++; Clonal growth, L: low density area of cell gradient, High [1]: +−; Clonal growth, L: low density area of cell gradient, Low [1]: ++; Clonal growth, L: low density area of cell gradient, Medium [1]: ++; Clonal inhibition by 4-OH-OPB analogues, summary of Exp 22-25 [1]: complete inhibition of growth in sparsely seeded areas; Clonal growth read on the 3rd day after seeding [1, 4]: ++; Clonal growth ([2]; High conc., μM in wells: No 1 (4-OH—OPB) 20, 2 (Colchicine) 0.1, 3 (Diphenylhydantoin) 100, 4 (Podophyllotoxin) 0.3, 5 (Piroxicam) 50, 6 (Diclofenak) 100, 7 (Ibuprofen) 1000, 8 (Naproxen) 500, 9 (Acetylsalicylic acid) 1000): −
CCCCC(O)(C(=O)Nc1ccccc1)C(=O)Nc1ccc(O)cc1 (centres unmarked) [#2, 2-Butyl-2-hydroxy-N-(4-hydroxy-phenyl)-N′-phenyl malonamide]		+		(+	++	++(+)	++	−	++	++	++	++(+)	++	−	++	++	no	no	++	++	Clonal growth, L: low density area of cell gradient, High [1, 20]: −; Clonal growth, H: high density area of cell gradient, Low [1, 21]: ++(+); Clonal growth, L: low density area of cell gradient, Low [1, 21]: ++; Clonal growth, H: high density area of cell gradient, Medium [1, 22]: ++; Clonal growth, L: low density area of cell gradient, Medium [1, 22]: ++; Clonal inhibition by 4-OH-OPB analogues, summary of Exp 22-25 ([1]; sparsely seeded areas while densely seeded areas of the same culture showed significant growth): complete inhibition of growth in sparsely seeded areas
CCCCC(=O)C(=O)Nc1ccccc1 [#3, 2-oxo-hexanoic acid phenylamide]	(+)	+	(+)		++	++(+)	++(+)	++	++(+)	++(+)	++	++(+)	++(+)	++	++(+)	++(+)	”	”	++	++	Clonal growth, L: low density area of cell gradient, High [1, 20]: ++; Clonal growth, H: high density area of cell gradient, Low [1, 21]: ++(+); Clonal growth, L: low density area of cell gradient, Low [1, 21]: ++(+); Clonal growth, H: high density area of cell gradient, Medium [1, 22]: ++(+); Clonal growth, L: low density area of cell gradient, Medium [1, 22]: ++(+); Clonal growth read on the 6th day after seeding [1, 3]: −; Effect on growth ([1]; Exp 23, 180000 S100T1 cells/well): did not show significant growth inhibition at all
